Measurements: paper PMC10906037, “Highly Enantioselective Catalysis by Enzyme Encapsulated in Metal Azolate Frameworks with Micelle-Controlled Pore Sizes” (ACS Central Science, 2024)

Target: T1, lipase CAL-B (Moesziomyces antarcticus, UniProt P41365)
T1 sequence (P41365 26-342): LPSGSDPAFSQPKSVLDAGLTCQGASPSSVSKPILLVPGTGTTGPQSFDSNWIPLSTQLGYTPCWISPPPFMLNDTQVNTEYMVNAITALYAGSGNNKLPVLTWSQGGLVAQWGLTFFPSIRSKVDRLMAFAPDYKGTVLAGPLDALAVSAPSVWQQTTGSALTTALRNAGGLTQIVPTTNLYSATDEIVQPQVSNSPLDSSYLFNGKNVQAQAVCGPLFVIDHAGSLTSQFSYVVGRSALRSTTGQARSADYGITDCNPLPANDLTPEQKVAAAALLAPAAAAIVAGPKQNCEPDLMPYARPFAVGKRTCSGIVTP
Assay: kinetic resolution, yield
Format: biochemical
Conditions: free CAL-B; substrate not given

CC(=O)O[C@H](C)c1cccc2ccccc12 [compound 8, product 8]
kinetic resolution, yield: it resulted in a notably lower yield in comparison to free CAL-B
